Measurements published in patent US7767240B2, “Microbiological control in poultry processing” (priority 2001, dated 2010).
Values joined by “and” are separate entries in the source; they are usually repeats but may differ in a detail not shown here. Identical values can stand only once.

Tests used:
Assay type in all cases: cell-based
[1] = tested on: Pseudomonas aeruginosa (ATCC 15442) biofilm; assay: MBEC biofilm eradication test (Calgary biofilm device); conditions: one-hour biocide contact time; for MBEC (minimum biofilm eradication concentration): individual determinations
Text: Table 45 summarizes test results performed at MBEC Biofilm Technologies, Inc., Calgary, Canada on the effectiveness of various biocides on biofilm removal. The test procedure, developed at the University of Calgary, utilizes a device which allows the growth of 96 identical biofilms under carefully controlled conditions. The device consists of a two-part vessel comprised of an upper plate containing 96 pegs that seals against a bottom plate. The bottom plate can consist of either a trough (for biofilm growth) or a standard 96-well plate (for biocide challenge). The biofilms develop on the 96 pegs. The device has been used as a general method for evaluating the efficacy of antibiotics and biocides towards biofilms. See in this connection H. Ceri, et al., “The MBEC Test: A New In Vitro Assay Allowing Rapid Screening for Antibiotic Sensitivity of Biofilm”, Proceedings of the ASM, 1998, 89, 525; Ceri, et al., “Antifungal and Biocide Susceptibility testing of Candida Biofilms using the MBEC Device”, Proceedings of the Interscience Conference on Antimicrobial Agents and Chemotherapy, 1998, 38, 495; and H. Ceri, et al., “The Calgary Biofilm Device: A New Technology for the Rapid Determination of Antibiotic Susceptibility of Bacterial Biofilms”, Journal of Clinical Microbiology, 1999, 37, 1771-1776.
Six biocide systems were evaluated using the above test procedure and test equipment. Five of these systems were oxidizing biocides, viz., chlorine (from NaOCl), halogen (from NaOCl+NaBr), halogen (from BCDMH), bromine (from DBDMH), and chlorine (from trichloroisocyanuric acid), all expressed as bromine as Br2 in mg/L, so that all test results were placed on the same basis. The sixth biocide was glutaraldehyde, a non-oxidizing biocide.
These biocide systems were used to challenge biofilms of Pseudomonas aeruginosa (ATCC 15442). This is a Gram (−) bacterium which is ubiquitous in microbiological slimes found in many water systems. See in this connection J. W. Costerton and H. Anwar, “Pseudomonas aeruginosa: The Microbe and Pathogen”, in Pseudomonas aeruginosa Infections and Treatment, A. L. Baltch and R. P. Smith editors, Marcel Dekker publishers, New York, 1994. In the field of poultry processing, S. Notermans, J. Dormans, and G. C. Mead, Biofouling, 1991, Vol. 5, pages 21-36, report observation of biofilms in poultry slaughter houses by use of scanning electron microscopy.
In Table 45 the MBEC (minimum biofilm eradication concentration) results presented are for the one-hour biocide contact time used in the test. The values given for the halogen containing biocides are expressed in terms of mg/L of bromine as Br2. The data on the glutaraldehyde is in terms of mg/L as active ingredient. […] In fact, only slightly more than one-half as much bromine from DBDMH was required to remove the biofilm as compared to the total halogen, expressed as Br2, that was required from BCDMH.

[2] = tested on: Escherichia coli field strain; assay: Carcass total bacteria count after 1.5-hour chill tank immersion (Example 1); conditions: average of 10 birds; for Mean Bacteria Reduction (carcass): 1.5 h chill tank
Text: (§1) The effect of these treatments on the residual chill tank water was also investigated. Carcasses were first immersed in a warm bath containing 10^4 E coli per mL of liquid. Carcasses were then immersed in chill tanks containing normal organic fluids (blood, fat, skin, and meat particles) and containing one of the respective microbiocidal compositions under test. Total bacteria count of whole bird (both inside and outside) was used to determine efficacy of various microbiocidal compositions. […] Albemarle Corporation). The trial events and experimental design used were as follows: • a) For all treatments a total of 190 birds were processed in a normal fashion. […] This was best done by grasping the broiler carcass with one hand and the closed top of the bag with the other then rocking with a reciprocal motion in a 18-24 inch arc, assuring that all carcass surfaces (interior and exterior) were rinsed. • h) The rinse solutions were then transferred from each stomacher bag into individual sample bottles, taking care to ensure that the information on the date of collection, time of collection, and treatment group matched that of the sample. Each bottle was sealed with parafilm and stored in a refrigerator. • i) Dilution of the fluids was conducted such that a 25-250 count was present on the MacConkey plate. […] Poultry carcass microbial contamination measurement was achieved by the complete washing of the entire carcass surface (inside and outside) using suitable sterile stripping solution followed by collection and plating of the stripping solution for bacterial enumeration.

[3] = tested on: Escherichia coli field strain; assay: Chill water bacteria count (Example 1); conditions: bacteria count per mL of treatment water
Text: as §1

[4] = 50 ppm Cl2 equivalent (Aquatize: 50 ppm sodium chlorite)
[5] = 100 ppm Cl2 equivalent (Aquatize: 100 ppm sodium chlorite)
[6] = 150 ppm Cl2 equivalent (Aquatize: 150 ppm sodium chlorite)

O=c1n(Cl)c(=O)n(Cl)c(=O)n1Cl [Trichloroisocyanuric acid, trichloroisocyanuric acid]
MBEC, avg. [1]: 2.0 mg/L of bromine as Br2
MBEC (minimum biofilm eradication concentration) [1]: 2.6 mg/L of bromine as Br2 and 1.3 mg/L of bromine as Br2

[Br-].[Na+] [Sodium bromide, sodium bromide]
Mean Bacteria Reduction (carcass) ([2]; 50 ppm Cl2 equivalent (Aquatize: 50 ppm sodium chlorite), control carcass 2.67 × 10^5 total count): 92
Mean Bacteria Reduction Count (carcass) [2, 4]: 92
Percent Bacteria Reduction From Control (carcass) [2, 4]: 0.034%
Mean Bacteria Reduction (carcass) [2, 5]: 6.54 × 10^2
Mean Bacteria Reduction Count (carcass) [2, 5]: 654
Percent Bacteria Reduction From Control (carcass) [2, 5]: 0.245%
Mean Bacteria Reduction (carcass) [2, 6]: 1.73 × 10^3
Mean Bacteria Reduction Count (carcass) [2, 6]: 1,730
Percent Bacteria Reduction From Control (carcass) [2, 6]: 0.648%
Chill Water Bacteria Count (Mean Bacteria Reduction) ([3]; 50 ppm Cl2 equivalent (Aquatize: 50 ppm sodium chlorite), negative control 5.11 × 10^3): 4.67 × 10^3 per mL
Chill Water Bacteria Count (Mean Bacteria Reduction) [3, 5]: 3.49 × 10^3 per mL
Chill Water Bacteria Count (Mean Bacteria Reduction) [3, 6]: 2.23 × 10^3 per mL

O=CCCCC=O [Glutaraldehyde, glutaraldehyde]
MBEC, avg. [1]: 50 mg/L as active ingredient
MBEC (minimum biofilm eradication concentration) [1]: 50, 50 mg/L as active ingredient

[Na+].[O-]Cl [NaOCl]
MBEC, avg. [1]: 3.8 mg/L of bromine as Br2
MBEC (minimum biofilm eradication concentration) [1]: 5.0 mg/L of bromine as Br2 and 2.5 mg/L of bromine as Br2
